# Test results from article PMC6364417, “Kinase inhibitor library screening identifies synergistic drug combinations effective in sensitive and resistant melanoma cells” (Journal of Experimental & Clinical Cancer Research : CR, 2019).
# Where “and” joins values, the source holds several entries; their conditions need not be identical. Equal entries are not always repeated. Where two headings read alike, the source gives them in different places.
# How the values were obtained:
# Experiment in all cases: Kinase inhibitor library screening, PrestoBlue cell viability, 1 or 10 μM, 72 h
# [1] = system: IGR37-XP cells (Vemurafenib-resistant); conditions: for Cell viability in kinase inhibitor library screening, IGR37 XP, 1μΜ: in %
# [2] = system: IGR37-GP cells (Dabrafenib-resistant); conditions: for Cell viability in kinase inhibitor library screening, IGR37 GP, 1μΜ: in %
# A375 cells (parental) = system: A375 cells (parental)
# 501Mel cells (parental) = conditions: for Cell viability in kinase inhibitor library screening, 501Mel Parental, 1μΜ / Cell viability in kinase inhibitor library screening, 501Mel Parental, 10μΜ: in %
# Method in brief: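 Cells are treated with each inhibitor at 1 or 10 μM, incubated 72 h, then PrestoBlue reagent is added and the plate is read. Data are normalised to untreated cells.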
# [3] = system: 501Mel-GP cells (Dabrafenib-resistant); conditions: for Cell viability in kinase inhibitor library screening, 501Mel GP, 1μΜ / Cell viability in kinase inhibitor library screening, 501Mel GP, 10μΜ: in %
# [4] = system: A375-XP cells (Vemurafenib-resistant)
# [5] = system: A375-GP cells (Dabrafenib-resistant)
# IGR37 cells (parental) = conditions: for Cell viability in kinase inhibitor library screening, IGR37 Parental, 1μΜ / Cell viability in kinase inhibitor library screening, IGR37 Parental, 10μΜ: in %
# [6] = system: 501Mel-XP cells (Vemurafenib-resistant); conditions: for Cell viability in kinase inhibitor library screening, 501Mel XP, 1μΜ / Cell viability in kinase inhibitor library screening, 501Mel XP, 10μΜ: in %
SMILES,"Cell viability in kinase inhibitor library screening, IGR37 XP, 10μΜ ([1]; IGR37 XP, 10μΜ, 72 h) [%]","Cell viability in kinase inhibitor library screening, IGR37 XP, 1μΜ ([1]; IGR37 XP, 1μΜ, 72 h)","Cell viability in kinase inhibitor library screening, IGR37 GP, 10μΜ ([2]; IGR37 GP, 10μΜ, 72 h) [%]","Cell viability in kinase inhibitor library screening, IGR37 GP, 1μΜ ([2]; IGR37 GP, 1μΜ, 72 h)","Cell viability in kinase inhibitor library screening, A375 Parental, 10μΜ (A375 cells (parental); A375 Parental, 10μΜ, 72 h)","Cell viability in kinase inhibitor library screening, A375 Parental, 1μΜ (A375 cells (parental); A375 Parental, 1μΜ, 72 h)","Cell viability in kinase inhibitor library screening, 501Mel Parental, 1μΜ (501Mel cells (parental); 501Mel Parental, 1μΜ, 72 h)","Cell viability in kinase inhibitor library screening, 501Mel Parental, 10μΜ (501Mel cells (parental); 501Mel Parental, 10μΜ, 72 h)","Cell viability in kinase inhibitor library screening, 501Mel GP, 1μΜ ([3]; 501Mel GP, 1μΜ, 72 h)","Cell viability in kinase inhibitor library screening, 501Mel GP, 10μΜ ([3]; 501Mel GP, 10μΜ, 72 h)","Cell viability in kinase inhibitor library screening, A375 XP, 1μΜ ([4]; A375 XP, 1μΜ, 72 h)","Cell viability in kinase inhibitor library screening, A375 XP, 10μΜ ([4]; A375 XP, 10μΜ, 72 h)","Cell viability in kinase inhibitor library screening, A375 GP, 1μΜ ([5]; A375 GP, 1μΜ, 72 h)","Cell viability in kinase inhibitor library screening, A375 GP, 10μΜ ([5]; A375 GP, 10μΜ, 72 h)","Cell viability in kinase inhibitor library screening, IGR37 Parental, 1μΜ (IGR37 cells (parental); IGR37 Parental, 1μΜ, 72 h)","Cell viability in kinase inhibitor library screening, IGR37 Parental, 10μΜ (IGR37 cells (parental); IGR37 Parental, 10μΜ, 72 h)","Cell viability in kinase inhibitor library screening, 501Mel XP, 1μΜ ([6]; 501Mel XP, 1μΜ, 72 h)","Cell viability in kinase inhibitor library screening, 501Mel XP, 10μΜ ([6]; 501Mel XP, 10μΜ, 72 h)",also measured
CO[C@H]1C[C@@H]2CC[C@@H](C)[C@@](O)(O2)C(=O)C(=O)N2CCCC[C@H]2C(=O)O[C@H]([C@H](C)C[C@@H]2CC[C@@H](O)[C@H](OC)C2)CC(=O)[C@H](C)/C=C(\C)[C@@H](O)[C@@H](OC)C(=O)[C@H](C)C[C@H](C)/C=C/C=C/C=C/1C [Rapamycin (Sirolimus)],49.9,96.0,76.7,92.2,72.3,80.2,84.7,77.5,69.9,59.4,79.4,83.3,80.8,79.4,79.9,81.5,56.7,42.7,
CNC(=O)c1cc(Oc2ccc(NC(=O)Nc3ccc(Cl)c(C(F)(F)F)c3)c(F)c2)ccn1 [Regorafenib (BAY 73-4506)],,,,,,,,,,,,,,,,,,,"cell viability (kinase inhibitor library screening) ([1]; IGR37 XP, 1μΜ, 72 h): 88.9%; cell viability (kinase inhibitor library screening) ([1]; IGR37 XP, 10μΜ, 72 h): 14.8%; cell viability (kinase inhibitor library screening) ([2]; IGR37 GP, 1μΜ, 72 h): 89.9%; cell viability (kinase inhibitor library screening) ([2]; IGR37 GP, 10μΜ, 72 h): 47.7%; cell viability (kinase inhibitor library screening) (A375 cells (parental); A375 Parental, 10μΜ, 72 h): 32.8%; cell viability (kinase inhibitor library screening) (A375 cells (parental); A375 Parental, 1μΜ, 72 h): 96.5%; cell viability (kinase inhibitor library screening) (501Mel cells (parental); 501Mel Parental, 1μΜ, 72 h): 93.5%; cell viability (kinase inhibitor library screening) (501Mel cells (parental); 501Mel Parental, 10μΜ, 72 h): 53.2%; cell viability (kinase inhibitor library screening) ([3]; 501Mel GP, 1μΜ, 72 h): 96.7%; cell viability (kinase inhibitor library screening) ([3]; 501Mel GP, 10μΜ, 72 h): 48.3%; cell viability (kinase inhibitor library screening) ([4]; A375 XP, 1μΜ, 72 h): 58.9%; cell viability (kinase inhibitor library screening) ([4]; A375 XP, 10μΜ, 72 h): 18.1%; cell viability (kinase inhibitor library screening) ([5]; A375 GP, 1μΜ, 72 h): 48.9%; cell viability (kinase inhibitor library screening) ([5]; A375 GP, 10μΜ, 72 h): 22.9%; cell viability (kinase inhibitor library screening) (IGR37 cells (parental); IGR37 Parental, 1μΜ, 72 h): 94.8%; cell viability (kinase inhibitor library screening) (IGR37 cells (parental); IGR37 Parental, 10μΜ, 72 h): 42.7%; cell viability (kinase inhibitor library screening) ([6]; 501Mel XP, 1μΜ, 72 h): 93.6%; cell viability (kinase inhibitor library screening) ([6]; 501Mel XP, 10μΜ, 72 h): 47.1%"
COc1cc(OC)c(/C=C/S(=O)(=O)Cc2ccc(OC)c(NCC(=O)O)c2)c(OC)c1 [Rigosertib (ON-01910)],35.5,55.9,61.1,62.5,15.2,18.2,20.3,26.0,16.6,20.3,18.3,9.8,19.7,16.9,11.0,15.4,9.5,14.7,
"CC[C@H](CO)Nc1nc(NCc2ccccc2)c2ncn(C(C)C)c2n1 [Roscovitine (Seliciclib, CYC202)]",,,,,,,,,,,,,,,,,,,cell viability (kinase inhibitor library screening) [1]: 96.5% and 59.2%; cell viability (kinase inhibitor library screening) [2]: 93.8% and 90.7%; cell viability (kinase inhibitor library screening) (A375 cells (parental)): 90.5%; cell viability (kinase inhibitor library screening) (501Mel cells (parental)): 95.0% and 93.4%; cell viability (kinase inhibitor library screening) [3]: 85.2%; cell viability (kinase inhibitor library screening) [4]: 109.6% and 86.5%; cell viability (kinase inhibitor library screening) [5]: 109.1% and 86.5%; cell viability (kinase inhibitor library screening) (IGR37 cells (parental)): 85.4% and 104.3%; cell viability (kinase inhibitor library screening) [6]: 93.6% and 61.7%
